Experimental data: US8183371B2, “Pyrazines as delta opioid receptor modulators” (Janssen Pharmaceutica NV, priority 2009, dated 2012)
Read-outs that look alike come from different tables or passages of the source.

Tests used:
δ-opioid receptor = target: T1, δ-opioid receptor (Mus musculus, UniProt P32300); experiment: [35S]GTPγS binding assay in NG108-15 cell membranes (delta opioid functional assay); format: biochemical; conditions: for GTPγS δ-RelEfficacy @200 nM: 200 nM compound, relative to calculated max of SNC80 dose response
T1 construct: NG108-15 cell membranes were purchased from Applied Cell Sciences (Rockville, Md.); host or cells: NG108-15 cell membranes (purchased)
T1 sequence (P32300 whole entry): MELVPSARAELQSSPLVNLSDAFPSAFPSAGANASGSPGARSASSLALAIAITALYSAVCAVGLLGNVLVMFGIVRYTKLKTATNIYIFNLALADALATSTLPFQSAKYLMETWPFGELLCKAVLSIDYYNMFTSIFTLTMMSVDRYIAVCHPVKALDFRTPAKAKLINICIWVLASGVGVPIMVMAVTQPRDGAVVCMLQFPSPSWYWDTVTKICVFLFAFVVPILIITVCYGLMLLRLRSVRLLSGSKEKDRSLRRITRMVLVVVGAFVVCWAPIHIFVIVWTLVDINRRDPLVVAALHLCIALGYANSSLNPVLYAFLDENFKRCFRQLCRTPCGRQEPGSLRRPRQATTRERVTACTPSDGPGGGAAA
Method: Methods: NG108-15 cell membranes were purchased from Applied Cell Sciences (Rockville, Md.). 5 mg/mL of membrane protein was suspended in 10 mM TRIS-HCl pH 7.2, 2 mM EDTA, 10% sucrose. Membranes were maintained at 4-8° C. A 1 mL volume of membranes was added into 10 mL cold binding assay buffer. The assay buffer contained 50 mM Tris, pH 7.6, 5 mM MgCl2, 100 mM NaCl, 1 mM DTT and 1 mM EGTA. The membrane suspension was homogenized twice with a Polytron, and centrifuged at 3000 rpm for 10 min. The supernatant was then centrifuged at 18,000 rpm for 20 min. Ten mL of assay buffer was added into the pellet containing tube. The pellet and buffer were mixed with a Polytron.
Incubation procedure: The pellet membranes (75 μg/mL) were preincubated with SPA beads (10 mg/mL) at 25° C. for 45 min in the assay buffer. The SPA beads (5 mg/mL) coupled with membranes (37.5 μg/mL) were then incubated with 0.1 nM [^35S]GTPγS in the same Tris buffer containing 100 μM GDP in total volume of 200 μL. 200 nM of receptor agonists was used to stimulate [^35S]-GTPγS binding. The basal binding was tested in the absence of agonists and non-specific binding was tested in the presence of 10 μM unlabeled GTPγS.
Data % of Basal=(stimulated−non specific)*100/(basal−non specific). Relative Efficacy of a compound at 200 nM=(% of Basal of test compound at 200 nM)/(Calculated Max of SNC80 dose response. Curve in prism).

delta opioid receptor = target: T2, delta opioid receptor (Rattus norvegicus, UniProt P33533); experiment: Rat brain delta opioid receptor binding assay
T2 construct: from tissue; host or cells: forebrain of male Wistar rats
T2 sequence (P33533 whole entry): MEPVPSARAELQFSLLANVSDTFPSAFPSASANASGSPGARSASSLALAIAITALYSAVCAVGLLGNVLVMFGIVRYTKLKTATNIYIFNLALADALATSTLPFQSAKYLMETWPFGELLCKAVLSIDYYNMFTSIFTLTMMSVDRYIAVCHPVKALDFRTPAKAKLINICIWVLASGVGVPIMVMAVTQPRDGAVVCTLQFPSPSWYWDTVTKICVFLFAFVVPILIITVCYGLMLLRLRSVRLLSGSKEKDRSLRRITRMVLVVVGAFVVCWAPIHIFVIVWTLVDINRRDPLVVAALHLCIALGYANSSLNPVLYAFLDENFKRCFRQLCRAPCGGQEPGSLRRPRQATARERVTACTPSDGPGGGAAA
Method: Procedure: Male, Wistar rats (150-250 g, VAF, Charles River, Kingston, N.Y.) were killed by CO2, and their brains were removed and placed immediately in ice cold Tris HCl buffer (50 mM, pH 7.4). The forebrains were separated from the remainder of the brain by a coronal transection, beginning dorsally at the colliculi and passing ventrally through the midbrain-pontine junction. After dissection, the forebrains were homogenized in Tris buffer in a Teflon®-glass homogenizer. The homogenate was diluted to a concentration of 1 g of forebrain tissue per 80 mL Tris and centrifuged at 39,000×g for 10 min. The pellet was resuspended in the same volume of Tris buffer containing 5 mM MgCl2 with several brief pulses from a Polytron homogenizer. This particulate preparation was used for the delta opioid binding assays. Following incubation with the delta selective peptide ligand ˜4 nM [^3H]DPDPE or 0.25 nM [^3H]naltrindole at 25° C. for 2.5 h in a 96-well plate with total volume of 1 mL, the plate contents were filtered through Wallac filtermat B sheets on a Tomtec 96-well harvester. The filters were rinsed three times with 2 mL of 10 mM HEPES (pH 7.4), and dried in a 650 W microwave oven for 1.75 min twice. To each sample area 2×50 μL of Betaplate Scint scintillation fluid (LKB) was added and the radioactivity was quantified on a LKB (Wallac) 1205 BetaPlate liquid scintillation counter.
Analysis: The data from the scintillation counter were used to calculate either the % inhibition compared to control binding (when only a single concentration of test compound was evaluated) or a Ki value (when a range of concentrations was tested). Percent inhibition was calculated as: [(total dpm−test compound dpm)/(total dpm−nonspecific dpm)]*100. Kd and Ki values were calculated using GraphPad PRISM data analysis program.

[1] = read-out: GTPγS δ-opioid receptor EC50
[2] = rat forebrain membranes, ~4 nM [3H]DPDPE, read-out: δ-binding (DPDPE ligand) Ki
[3] = [3H]naltrindole ligand, read-out: δ-binding (Naltrindole ligand) Ki

Row | Structure (SMILES) | GTPγS δ-opioid receptor Rel Efficacy (δ-opioid receptor) | EC50 (δ-opioid receptor; [1]) [nM] | Ki (delta opioid receptor; [2]) [nM] | GTPγS δ-RelEfficacy @200 nM (δ-opioid receptor) | Ki (delta opioid receptor; [3]) [nM] | Ki (delta opioid receptor) [nM] | EC50 (δ-opioid receptor) [nM]
1 | COc1ccc(Oc2nc(-c3cncnc3)cnc2NC[C@@H]2CCCN2)cc1 [Cpd 5] | 1.0984 | 349 | 2.7 | – | – | – | –
2 | CCc1ccc(Oc2nc(-c3cncnc3)cnc2NC[C@@H]2CCCN2)cc1 [Cpd 6] | 1.1553 | 460 | 32.3 | – | – | – | –
3 | c1ncc(-c2cnc(NC[C@@H]3CCCN3)c(Oc3ccc4c(c3)OCO4)n2)cn1 [Cpd 7] | – | – | 491 | – | – | – | –
4 | COc1ccc(Oc2nc(-c3cncnc3)cnc2NC[C@@H]2CCCN2)c(F)c1 [Cpd 9] | 1.1022 | 281 | 1.2 | – | – | – | –
5 | Clc1ccc(Oc2nc(-c3cncnc3)cnc2NC[C@@H]2CCCN2)cc1 [Cpd 10] | – | – | – | 0.2150 | 1.1 | – | –
6 | Clc1cccc(Oc2nc(-c3cncnc3)cnc2NC[C@@H]2CCCN2)c1 [Cpd 11] | – | – | – | 0.2102 | 1.8 | – | –
7 | Clc1ccccc1Oc1nc(-c2cncnc2)cnc1NC[C@@H]1CCCN1 [Cpd 12, [3-(2-Chloro-phenoxy)-5-pyrimidin-5-yl-pyrazin-2-yl]-pyrrolidin-2-(S)-ylmethyl-amine] | – | – | – | 0.2356 | 0.7 | – | –
8 | CC(=O)Nc1cccc(Oc2nc(-c3cncnc3)cnc2NC[C@@H]2CCCN2)c1 [Cpd 13] | – | – | – | 0.0800 | 4 | – | –
9 | c1cn(-c2ccc(Oc3nc(-c4cncnc4)cnc3NC[C@@H]3CCCN3)cc2)cn1 [Cpd 14] | – | – | – | – | 411 | – | –
10 | Oc1cccc(Oc2nc(-c3cncnc3)cnc2NC[C@@H]2CCCN2)c1 [Cpd 15, 3-{6-Pyrimidin-5-yl-3-[(pyrrolidin-2-(S)-ylmethyl)-amino]-pyrazin-2-yloxy}-phenol] | – | – | – | – | 0.4 | – | –
11 | COc1ccc(Cc2nc(-c3cccnc3)cnc2NC[C@@H]2CCCN2)cc1 [Cpd 16] | 0.3985 | 7320 | – | – | 15 | – | –
12 | COc1ccc(Cc2nc(-c3cncnc3)cnc2NC[C@@H]2CCCN2)cc1 [Cpd 17, [3-(4-Methoxy-benzyl)-5-pyrimidin-5-yl-pyrazin-2-yl]-pyrrolidin-2-(S)-ylmethyl-amine] | – | – | – | 0.1065 | 19.9 | – | –
13 | N#Cc1ccc(Oc2nc(-c3cncnc3)cnc2NC[C@@H]2CCCN2)cc1 [Cpd 18] | – | – | – | 0.1065 | 76.4 | – | –
14 | COc1ccc(Oc2nc(-c3cncc(C#N)c3)cnc2NC[C@H](C)N)cc1 [Cpd 19] | – | – | – | – | 0.3 | – | –
15 | COc1ccc(Oc2nc(-c3cncnc3)cnc2NC[C@H](C)N)cc1 [Cpd 20] | 1.0287 | 50.5 | – | 0.6890 | 0.6 | – | –
16 | COc1ccc(Oc2nc(-c3cncc(C#N)c3)cnc2NCC2(N)CCCC2)cc1 [Cpd 21] | – | – | – | 0.2481 | 0.6 | – | –
17 | COc1ccc(Oc2nc(-c3cncnc3)cnc2NCC2(N)CCCC2)cc1 [Cpd 22] | – | – | – | 0.2384 | 2.9 | – | –
18 | COc1ccc(Cc2nc(-c3cncc(C#N)c3)cnc2NC[C@@H]2CCCN2)cc1 [Cpd 23] | – | – | – | 0.1174 | 2.4 | – | –

Row | Structure (SMILES) | GTPγS δ-opioid receptor Rel Efficacy (δ-opioid receptor) | EC50 (δ-opioid receptor; [1]) [nM] | Ki (delta opioid receptor; [2]) [nM] | GTPγS δ-RelEfficacy @200 nM (δ-opioid receptor) | Ki (delta opioid receptor; [3]) [nM] | Ki (delta opioid receptor) [nM] | EC50 (δ-opioid receptor) [nM]
19 | COc1ccc(Oc2nc(-c3cncc(C#N)c3)cnc2NC[C@@H]2CCCN2)cc1 [Cpd 24] | – | – | – | 0.1669 | 0.2 | – | –
20 | COc1ccc(Oc2nc(-c3cncc(C#N)c3)cnc2NC[C@@H]2CCCN2)cc1F [Cpd 25] | 1.0387 | 31.3 | – | 0.9130 | 0.2 | – | –
21 | COc1ccc(Oc2nc(-c3cncc(C#N)c3)cnc2NC[C@@H]2CCCN2)c(F)c1 [Cpd 26] | 1.0534 | 27.1 | – | 1.0180 | 0.2 | – | –
22 | N#CCc1ccc(Oc2nc(-c3cncc(C#N)c3)cnc2NC[C@@H]2CCCN2)cc1 [Cpd 27] | 1.0035 | 34.2 | – | 0.9179 | 6.4 | – | –
23 | Cc1ccc(Oc2nc(-c3cncc(C#N)c3)cnc2NC[C@@H]2CCCN2)cn1 [Cpd 28] | – | – | – | 0.1492 | 13.2 | – | –
24 | N#Cc1cncc(-c2cnc(NC[C@@H]3CCCN3)c(Oc3ccc(OC(F)F)cc3)n2)c1 [Cpd 29] | – | – | – | 0.0000 | 0.3 | – | –
25 | COc1ccc(Oc2nc(-c3cncc(C#N)c3)cnc2N2CCNCC2)cc1 [Cpd 30, 5-[3′-(4-Methoxy-phenoxy)-3,4,5,6-tetrahydro-2H-[1,2′]bipyrazinyl-5′-yl]-nicotinonitrile] | 1.1345 | 111 | – | 0.5999 | 0.1 | – | –
26 | COc1ccc(Oc2nc(-c3cccnc3)cnc2N2CCNCC2)cc1 [Cpd 31] | 1.0012 | 8.1 | – | 0.7579 | 0.3 | – | –
27 | c1ncc(-c2cnc(NC[C@@H]3CCCN3)c(Oc3ccc4c(c3)CCO4)n2)cn1 [Cpd 33] | – | – | – | – | 4.3 | – | –
28 | COc1ccc(Oc2nc(-c3cncc(C#N)c3)cnc2N[C@H]2CC[C@H](N)CC2)cc1 [Cpd 34] | – | – | – | – | – | 0.7 | –
29 | COc1ccc(Oc2nc(-c3cncc(C#N)c3)cnc2N[C@H]2CC[C@@H](N)CC2)cc1 [Cpd 35] | 1.2053 | – | – | 0.4157 | – | 0.4 | 95.2
30 | N#Cc1cncc(-c2cnc(NC[C@@H]3CCCN3)c(Oc3ccc(OC(F)(F)F)cc3)n2)c1 [Cpd 36] | 0.9719 | 29.7 | – | 0.5598 | 1.4 | – | –
31 | CCc1ccc(Oc2nc(-c3cncc(C#N)c3)cnc2NC[C@@H]2CCCN2)cc1 [Cpd 37] | – | – | – | 0.3353 | 0.5 | – | –
32 | N#Cc1cncc(-c2cnc(NC[C@@H]3CCCN3)c(Oc3cccc(O)c3)n2)c1 [Cpd 38, 5-{6-(3-Hydroxy-phenoxy)-5-[(pyrrolidin-2-(S)-ylmethyl)-amino]-pyrazin-2-yl}-nicotinonitrile] | 1.1104 | 66.6 | – | 0.6472 | 0.086 | – | –
33 | N#Cc1cncc(-c2cnc(NC[C@@H]3CCCN3)c(Oc3ccc4occc4c3)n2)c1 [Cpd 39] | 1.0736 | 4.6 | – | 1.0765 | 0.2 | – | –
34 | N#Cc1cncc(-c2cnc(NC[C@@H]3CCCN3)c(Oc3ccc4[nH]ccc4c3)n2)c1 [Cpd 40] | 1.1190 | 39.3 | – | 0.6606 | – | – | –
35 | N#Cc1cncc(-c2cnc(NC[C@@H]3CCCN3)c(Oc3ccccc3Cl)n2)c1 [Cpd 41] | 1.2922 | 298 | – | 0.3049 | – | – | –
36 | N#Cc1cncc(-c2cnc(NC[C@@H]3CCCN3)c(Oc3cccc(Cl)c3)n2)c1 [Cpd 42] | 1.1894 | 84.4 | – | 0.7111 | – | – | –
